For assay [1], the system named is Rattus norvegicus. Kind of assay: Antihypertensive activity as percentage fall in systolic blood pressure in spontaneously hypertensive rats 1 hr after 50 mg/kg po administration. The assay is classed as functional, Artery.
Assay [2] relates to Rattus norvegicus. Kind of assay: Antihypertensive activity as percentage fall in systolic blood pressure in spontaneously hypertensive rats 1 hr after 25 mg/kg po administration;NS means nonsignificant difference between treated and control group. Further details: dose 25 mg/kg. The following applies: Artery, at 25 mg/kg. The assay is classed as functional, organism-based.
The test system of assay [3] is Rattus norvegicus. Kind of assay: Percentage fall in systolic blood pressure in spontaneously hypertensive rats 2 hr after 50 mg/kg p.o. administration. In kind it is functional, Artery. The following applies: route oral.
Assay [4] deals with Rattus norvegicus. Kind of assay: Antihypertensive activity as percentage fall in systolic blood pressure in spontaneously hypertensive rats 3h after 25 mg/kg po administration. In kind it is functional.
Assay [5] concerns Rattus norvegicus. Kind of assay: Antihypertensive activity as percentage fall in systolic blood pressure in spontaneously hypertensive rats 4 hr after 50 mg/kg po administration. The assay is classed as functional, Artery.
Assay [6] concerns Rattus norvegicus. Kind of assay: Percentage fall in systolic blood pressure in spontaneously hypertensive rats 3h after 50 mg/kg p.o. administration; Not significant. The assay is classed as functional, organism-based. Further details: dose 50 mg/kg. The settings on record: Artery, at 50 mg/kg.
The test system of assay [7] is Rattus norvegicus. Kind of assay: Antihypertensive activity as percentage fall in systolic blood pressure in spontaneously hypertensive rats 2 hr after 25 mg/kg po administration;NS means nonsignificant difference between treated and control group. The assay is classed as functional, organism-based. Further details: dose 25 mg/kg. The following applies: Artery, at 25 mg/kg.

Assay [8] relates to Rattus norvegicus. Kind of assay: Antihypertensive activity as percentage fall in systolic blood pressure in spontaneously hypertensive rats 4 hr after 25 mg/kg po administration;NS means nonsignificant difference between treated and control group. In kind it is functional, organism-based. Also noted: dose 25 mg/kg. The following applies: Artery, at 25 mg/kg.
Assay [9] deals with Rattus norvegicus. Kind of assay: Antihypertensive activity as percentage fall in systolic blood pressure in spontaneously hypertensive rats 3h after 25 mg/kg po administration;NS means nonsignificant difference between treated and control group. The assay is classed as functional, organism-based. Further details: dose 25 mg/kg. The following applies: Artery, at 25 mg/kg.
Assay [10] concerns Rattus norvegicus. Kind of assay: Antihypertensive activity as percentage fall in systolic blood pressure in spontaneously hypertensive rats 3h after 50 mg/kg po administration. The assay is classed as functional, Artery.
Assay [11] relates to Rattus norvegicus. Kind of assay: Antihypertensive activity as percentage fall in systolic blood pressure in spontaneously hypertensive rats 4 hr after 25 mg/kg po administration. In kind it is functional, Artery.
In assay [12] the test system is Rattus norvegicus. Kind of assay: Antihypertensive activity as percentage fall in systolic blood pressure in spontaneously hypertensive rats 1 hr after 25 mg/kg po administration. The assay is classed as functional, Artery.
Assay [13] deals with Rattus norvegicus. Kind of assay: Antihypertensive activity as percentage fall in systolic blood pressure in spontaneously hypertensive rats 1 hr after 12.5 mg/kg po administration;NS means nonsignificant difference between treated and control group. Also noted: dose 12.5 mg/kg. The settings on record: Artery, at 12.5 mg/kg. In kind it is functional, organism-based.
The subject of assay [14] is Rattus norvegicus. Kind of assay: Antihypertensive activity as percentage fall in systolic blood pressure in spontaneously hypertensive rats 2 hr after 25 mg/kg po administration. The assay is classed as functional, Artery.
Assay [15] deals with Rattus norvegicus. Kind of assay: Antihypertensive activity as percentage fall in systolic blood pressure in spontaneously hypertensive rats 2 hr after 12.5 mg/kg po administration;NS means nonsignificant difference between treated and control group. Further details: dose 12.5 mg/kg. The following applies: Artery, at 12.5 mg/kg. The assay is classed as functional, organism-based.

Assay [16] relates to Rattus norvegicus. Kind of assay: Antihypertensive activity as percentage fall in systolic blood pressure in spontaneously hypertensive rats 3h after 12.5 mg/kg po administration;NS means nonsignificant difference between treated and control group. In kind it is functional, organism-based. Further details: dose 12.5 mg/kg. The following applies: Artery, at 12.5 mg/kg.
Assay [17] relates to Rattus norvegicus. Kind of assay: Antihypertensive activity as percentage fall in systolic blood pressure in spontaneously hypertensive rats 4 hr after 12.5 mg/kg po administration;NS means nonsignificant difference between treated and control group. In kind it is functional, organism-based. Also noted: dose 12.5 mg/kg. The settings on record: Artery, at 12.5 mg/kg.
The test system of assay [18] is Rattus norvegicus. Kind of assay: Percentage fall in systolic blood pressure in spontaneously hypertensive rats 2 hr after 50 mg/kg p.o. administration; Not significant. In kind it is functional, organism-based. Further details: dose 50 mg/kg. The settings on record: Artery, at 50 mg/kg.
Assay [19] relates to Rattus norvegicus. Kind of assay: Antihypertensive activity as percentage fall in systolic blood pressure in spontaneously hypertensive rats 4 hr after 50 mg/kg po administration; NS means nonsignificant difference between treated and control group. In kind it is functional, organism-based. Also noted: dose 50 mg/kg. The settings on record: Artery, at 50 mg/kg.
Assay [20] deals with Rattus norvegicus. Kind of assay: Percentage fall in systolic blood pressure in spontaneously hypertensive rats 1 hr after 50 mg/kg p.o. administration; Not significant. The assay is classed as functional, organism-based. Also noted: dose 50 mg/kg. The following applies: Artery, at 50 mg/kg.
The test system of assay [21] is Rattus norvegicus. Kind of assay: Antihypertensive activity as percentage fall in systolic blood pressure in spontaneously hypertensive rats 3h after 0.31 mg/kg po administration. In kind it is functional, Artery.
Assay [22] relates to Rattus norvegicus. Kind of assay: Antihypertensive activity as percentage fall in systolic blood pressure in spontaneously hypertensive rats 2 hr after 0.31 mg/kg po administration. The assay is classed as functional, Artery.
The subject of assay [23] is Rattus norvegicus. Kind of assay: Antihypertensive activity as percentage fall in systolic blood pressure in spontaneously hypertensive rats 1 hr after 0.31 mg/kg po administration. The assay is classed as functional, Artery.
Assay [24] concerns Rattus norvegicus. Kind of assay: Antihypertensive activity as percentage fall in systolic blood pressure in spontaneously hypertensive rats 4 hr after 1.25 mg/kg po administration.
Assay [25] has as its system Rattus norvegicus. Kind of assay: Antihypertensive activity as percentage fall in systolic blood pressure in spontaneously hypertensive rats 3h after 1.25 mg/kg po administration.
Assay [26] relates to Rattus norvegicus. Kind of assay: Antihypertensive activity as percentage fall in systolic blood pressure in spontaneously hypertensive rats 1 hr after 1.25 mg/kg po administration.
Assay [27] concerns Rattus norvegicus. Kind of assay: Antihypertensive activity as percentage fall in systolic blood pressure in spontaneously hypertensive rats 4 hr after 0.31 mg/kg po administration. The assay is classed as functional, Artery.
Assay [28] concerns Rattus norvegicus. Kind of assay: Antihypertensive activity as percentage fall in systolic blood pressure in spontaneously hypertensive rats 2 hr after 1.25 mg/kg po administration.

Active and inactive are the calls of the source. No cut-off for these calls is given here.

Regarding `CCN1C[C@]2(CCN3CCc4cc(OC)c(OC)cc4[C@@H]3C2)OC1=O`, the Fall is 43% in the assay on Rattus norvegicus [1]; “Not significant” in the assay on Rattus norvegicus [2]; 30% in the assay with Rattus norvegicus [3]; “Not significant” in the assay with Rattus norvegicus [4] (Artery, at 25 mg/kg); 18% with Rattus norvegicus [5]; “Not significant” in the assay on Rattus norvegicus [6]. Besides, the Fall result with Rattus norvegicus [7] and in the assay with Rattus norvegicus [8] was “Not significant” in each case.
As for `O=C1NC[C@@]2(CCN3CCc4ccccc4[C@@H]3C2)O1`, the Fall with Rattus norvegicus [1] is 22%; in the assay on Rattus norvegicus [9], “Not significant”; in the assay with Rattus norvegicus [3], 26%; with Rattus norvegicus [5], 12%; with Rattus norvegicus [10], 14%; with Rattus norvegicus [11], 25%. Besides, the Fall entry is “Not significant” with Rattus norvegicus [7] and 20% with Rattus norvegicus [12].
With `O=C(NC1CCN(CCc2c[nH]c3ccccc23)CC1)c1ccccc1` [INDORAMIN], the Fall in the assay with Rattus norvegicus [4] was 34%; in the assay on Rattus norvegicus [11] it was 30%; in the assay on Rattus norvegicus [14], 28%; in the assay on Rattus norvegicus [12], 27%. Also, the Fall entry in the assay with Rattus norvegicus [13], in the assay on Rattus norvegicus [15], with Rattus norvegicus [16] and with Rattus norvegicus [17] was “inactive” in each case.
Take `CC[C@H]1CN2CCc3cc(OC)c(OC)cc3[C@@H]2C[C@]12CNC(=O)O2`: the Fall result in the assay with Rattus norvegicus [9], in the assay on Rattus norvegicus [18], in the assay on Rattus norvegicus [6], with Rattus norvegicus [19], in the assay on Rattus norvegicus [20] and in the assay with Rattus norvegicus [8] was “Not significant” each time.
With `COc1cc2nc(N3CCN(C(=O)c4ccco4)CC3)nc(N)c2cc1OC` [PRAZOSIN], the Fall was determined as 21% with Rattus norvegicus [21]; 31% in the assay on Rattus norvegicus [22]; 19% with Rattus norvegicus [23]; 31% in the assay with Rattus norvegicus [24]; 36% in the assay on Rattus norvegicus [25]; 26% with Rattus norvegicus [26]. Besides, the values for the Fall in the assay with Rattus norvegicus [27] and with Rattus norvegicus [28] were 26% and 46%, respectively.
As for `COc1cc2c(cc1OC)[C@@H]1C[C@]3(CNC(=O)O3)[C@@H](C)CN1CC2`, the Fall with Rattus norvegicus [1] was 47%; in the assay on Rattus norvegicus [9], “Not significant”; with Rattus norvegicus [3], 41%; with Rattus norvegicus [5] it was 25%; in the assay on Rattus norvegicus [10], 37%; in the assay on Rattus norvegicus [11] it was 15%. Also, the Fall turned out to be 19% in the assay with Rattus norvegicus [14] and 27% with Rattus norvegicus [12].

The record behind these values is ChEMBL document CHEMBL1122367, “Synthesis and antihypertensive activity of a series of spiro[1,3,4,6,7,11b-hexahydro-2H-benzo[a]quinolizine-2,5'-oxazolidin-2'-one]s” (1983).
